Results: PMC8315922, “In Vitro Identification and In Vivo Confirmation of Inhibitors for Sweet Potato Chlorotic Stunt Virus RNA Silencing Suppressor, a Viral RNase III” (Journal of Virology, 2021)
Where two headings read alike, the source gives them in different places.

Key:
[1] = target: CSR3 (RNase III of SPCSV) (Sweet potato chlorotic stunt virus, UniProt Q8JJW8); assay: Kinetic-based FRET dose-response assay (IC50, DSS); format: biochemical; conditions: for DSS Comm 1 / DSS FIMM1 / DSS FIMM 2: drug sensitivity score; for DSS Comm 1: repeat Comm 1; for DSS FIMM1: repeat FIMM 1; for DSS FIMM 2: repeat FIMM 2
Protocol: A dose-response assay with six concentrations (1.25 nM to 50 μM) was carried out in three independent experiments, which included two tests with the 112 selected FIMM compounds (i.e., compounds prepared by the HTB-FIMM) and one test using the newly ordered commercial compounds (99 of the 112 compounds, i.e., compounds prepared by a second supplier). A dose-response curve was generated for each compound based on PI values as a function of the concentration.
The HTS assay was designed based on FRET using a 22-bp siRNA (forward sequence, […]; reverse sequence, […]) with a 2-nucleotide (nt) 3′ overhang labeled with the fluorescent dye 6-carboxyfluorescein (FAM) and a black hole quencher (BHQ1) on the sense strand (Metabion, Munich, Germany). Screening was initially carried out at one concentration (10 μM) in a 20-μl reaction buffer. […] All reaction mixtures contained 50 nM CSR3 and 375 nM labeled siRNA in 384-well black flat-bottom microplates (Corning, NY, USA) and were prepared using a BioTek MultiFlo FX dispenser with single-channel random access dispenser cassettes (BioTek, Winooski, VT, USA). The plates were read with a PHERAstar FS reader (BMG Labtech, Ortenberg, Germany).
(§1) For HTS, the activity of CSR3 was calculated by measuring the change in fluorescence as a function of the reaction time using MARS Data Analysis software (BMG Labtech). To evaluate the CSR3 inhibition efficiency of individual compounds, the PI of each compound was calculated using the slope values for the sample, positive control, and negative control according to the following equation: PI = 100 × [1 − (sample − positive)/(negative − positive)]%. IC50 and DSS values were calculated using concentration-specific PI values according to a previous study ([31]). Relative gene expression was calculated using the classical 2^−ΔΔ^CT method ([63]).

[2] = target: T1, CSR3 (Sweet potato chlorotic stunt virus, UniProt Q8JJW8); assay: Binding affinity assay using SPR; conditions: for Kd: unit inferred, read-out: Steady State Affinity
T1 sequence (Q8JJW8 1-228): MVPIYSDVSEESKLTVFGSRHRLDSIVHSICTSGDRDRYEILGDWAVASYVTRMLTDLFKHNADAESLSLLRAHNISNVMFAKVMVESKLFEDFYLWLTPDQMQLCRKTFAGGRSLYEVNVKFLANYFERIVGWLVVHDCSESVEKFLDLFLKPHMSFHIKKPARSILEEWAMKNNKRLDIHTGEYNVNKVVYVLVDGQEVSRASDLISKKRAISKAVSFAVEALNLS
Protocol: Binding affinity assays were first carried out with the 99 commercial compounds using the MST method.
CSR3 was purified as described above and stored in PBS buffer. SPR was performed on a BiacoreT100 instrument (GE Healthcare) using a sensor S CM5 chip (GE Healthcare). CSR3 (10 ng/μl) was immobilized using the standard amine-coupling method according to the manufacturer’s instructions with immobilization buffer (10 mM sodium acetate [pH 4]); the final response unit (RU) value was 11,459. Compounds at a single concentration (100 μM) or consisting of 2-fold serial dilutions (3 μM to 200 μM) were flowed over the sensor surface using PBS buffer with 0.01 M HEPES, 0.05% surfactant P20, and 2% DMSO. […] To eliminate bulk interference by DMSO, a solvent correction consisting of DMSO at concentrations ranging from 1.5% to 2.8% was carried out for every 30 samples. Steady-state affinity (KD) values were determined using BiacoreT100 Evaluation software, v.2.04 (GE Healthcare).

[3] = system: SPFMV; assay: Virus accumulation (RT-qPCR of coat protein RNA) in coinfected sweetpotato plants grown in culture medium: SPFMV; format: in vivo, Sweet potato feathery mottle virus; conditions: for SPFMV_FC (fold change of viral accumulation): 50 μM in culture medium, 28 days, relative to DMSO control; for SPFMV accumulation reduced / viral titer SPFMV (log2 fold change relative to controls): plants in culture medium, 50 μM
Protocol: (§2) Since tests in culture medium consume smaller amounts of compounds and can be carried out under relatively controlled conditions, sweetpotato plants coinfected with SPCSV and SPFMV were grown in medium supplemented with one of the 30 inhibitor candidates at a concentration of 50 μM. Their effects on plant growth were monitored by imaging the plants once a week. […] In addition, virus accumulation was quantified by measuring the relative abundance of the transcripts encoding viral coat proteins using RT-qPCR ([32]). The effect of individual compounds on virus accumulation was estimated by comparing treated and control plants.
(§3) Sweetpotato plants cultivar 'Huachano' (accession CIP420065) were side-graft inoculated with both SPFMV (East African strain isolate Nam1) and SPCSV-Ug (East African serotype 2) as described previously ([62]). Plantlets were propagated by taking single-node stems grown in a plant culture medium ([33]). Next, plantlets with newly formed roots were transferred to glass tubes (18 by 150 mm) containing 10 ml of medium supplemented with either 50 μM compound (diluted in DMSO; final DMSO concentration, 0.1%) or only 0.1% DMSO as a control. For plant experiments in soil, plantlets were transferred to pots (6 by 6 by 10 cm) filled with a mixture of sand, humus, and washed soil. After 1 week, plants were treated by foliar spraying using either individual compounds at a single concentration (10 μM) (treatment) or water (control/mock) twice a week for 1 month. All plants were grown at 22°C with 60% humidity and a 16-h light/8-h dark photoperiod for 28 days in culture medium and for 41 days in soil. The Finnish National Plant Phenotyping Infrastructure (NaPPI) was used to monitor plant viral disease symptoms as described in our previous study ([33]). Four compounds were tested with the phenotyping platform in two independent batches, each of which included five biological replicates.
(§4) Leaf samples were collected from plants grown in culture medium or soil for 28 or 41 days, respectively, and frozen in liquid nitrogen. Total RNA was extracted using the Spectrum plant total RNA kit (Sigma-Aldrich). First-strand cDNA was synthesized using the Transcriptor first-strand cDNA synthesis kit (Roche, Basel, Switzerland). […] All RT-qPCR experiments were conducted in triplicate on three and five biological replicates from plants grown in culture medium and soil, respectively. The primer list can be found in our previous study ([33]).
as §1

[4] = system: SPCSV; assay: Virus accumulation (RT-qPCR of coat protein RNA) in coinfected sweetpotato plants grown in culture medium: SPCSV; format: in vivo, Sweet potato chlorotic stunt virus; conditions: for SPCSV_FC (fold change of viral accumulation): 50 μM in culture medium, 28 days, relative to DMSO control; for SPCSV accumulation reduced / viral titer SPCSV (log2 fold change relative to controls): plants in culture medium, 50 μM
Protocol: as §2, §3, §4, §1

[5] = system: sweetpotato plants; conditions: 50 μM in culture medium
[6] = kinetic-based HTS, Fig 5A summary
[7] = read-out: IC50 Comm 1, repeat Comm 1 (commercial compounds), 1.25 nM to 50 μM, unit inferred, numbers match nM
[8] = read-out: IC50 FIMM 2, repeat FIMM 2 (FIMM library compounds), 1.25 nM to 50 μM, unit inferred, numbers match nM
[9] = repeat FIMM 1 (FIMM library compounds), 1.25 nM to 50 μM, unit inferred, numbers match nM (cf. Fig 5A), read-out: IC50 FIMM1
[10] = repeat Comm 1 (commercial compounds), 1.25 nM to 50 μM, unit inferred, numbers match nM, read-out: IC50 Comm 1
[11] = repeat FIMM 2 (FIMM library compounds), 1.25 nM to 50 μM, unit inferred, numbers match nM, read-out: IC50 FIMM 2
[12] = SPR dose-response 3 μM to 200 μM, 25°C, numbers match M (cf. Fig 5A)

## O=C(O)c1ccc(C2Nc3c(Br)cccc3C3C=CCC32)cc1 (centres unmarked) [FIMM022230]
[1]
  DSS Comm 1: 5.4
  DSS FIMM1: 13.8
  DSS FIMM 2: 14.3
[1]; [6]
  DSS: 13.8
  IC50: ~1860 nM
[1]; [7]
  IC50: 12000 nM
[1]; [8]
  IC50: 1550 nM
[1]; [9]
  IC50: 1860 nM
[2]; steady-state affinity, Fig 5A
  KD (SPR): millimolar range
[3]
  SPFMV_FC (fold change of viral accumulation): 0.2613
  SPFMV accumulation reduced: ~4 fold
  viral titer SPFMV (log2 fold change relative to controls): −1.93
[4]
  SPCSV_FC (fold change of viral accumulation): 0.08458
  SPCSV accumulation reduced: approximately 8 fold
  viral titer SPCSV (log2 fold change relative to controls): −3.56
[5]
  Toxicity: no

## O=C1c2c(O)ccc(O)c2C(=O)c2c(NCCNCCO)ccc(NCCNCCO)c21 [FIMM000490]
[1]
  DSS Comm 1: 16.9
  DSS FIMM1: 14.9
  DSS FIMM 2: 15.5
[1]; [10]
  IC50: 1200 nM
[1]; [9]
  IC50: 1810 nM
[1]; [11]
  IC50: 1640 nM
[2]; [12]
  Kd: 0.137 µM
[3]
  SPFMV_FC (fold change of viral accumulation): 1.747
[4]
  SPCSV_FC (fold change of viral accumulation): 0.2453
[5]
  Toxicity: no

## COc1cc(C=C2C(=O)NC(=S)NC2=O)ccc1OCc1ccccc1[N+](=O)[O-] [FIMM101864]
[1]
  DSS Comm 1: 6.4
  DSS FIMM1: 11.2
  DSS FIMM 2: 8
[1]; [10]
  IC50: 1690 nM
[1]; [9]
  IC50: 3850 nM
[1]; [11]
  IC50: 7240 nM
[2]; SPR dose-response 3 μM to 200 μM, 25°C, unit not given, numbers match M (cf. Fig 5A)
  Steady State Affinity: non binder
[3]
  SPFMV_FC (fold change of viral accumulation): 1.376
[4]
  SPCSV_FC (fold change of viral accumulation): 0.5034

## Cc1ccc(C2Nc3ccc(C(=O)O)cc3C3C=CCC32)cc1 (centres unmarked) [FIMM031755]
[1]
  DSS Comm 1: 7.7
  DSS FIMM1: 15.9
  DSS FIMM 2: 16.2
[1]; [6]
  DSS: 15.9
  IC50: ~1270 nM
[1]; [7]
  IC50: 7380 nM
[1]; [8]
  IC50: 1240 nM
[2]; [12]
  Kd: 3.76 µM
[3]
  SPFMV_FC (fold change of viral accumulation): 0.5653
  SPFMV accumulation reduced: ~2 fold
  viral titer SPFMV (log2 fold change relative to controls): −0.82
[4]
  SPCSV_FC (fold change of viral accumulation): 0.5163
  SPCSV accumulation reduced: ~2 fold
  viral titer SPCSV (log2 fold change relative to controls): −0.95
[5]
  Toxicity: no
